Laboratory results published in article PMC4505086, “Azobenzene-based inhibitors of human carbonic anhydrase II” (Beilstein Journal of Organic Chemistry, 2015).

Molecular target: T1, human carbonic anhydrase II (hCAII) (Homo sapiens, UniProt P00918)
T1 construct: made in house
Experiment: colorimetric endpoint measurement of hCAII-catalyzed pNPA hydrolysis
Type: biochemical
Conditions: for Ki: calculated from IC50 by Cheng–Prusoff equation, Km = 1092.5 µM for pNPA, [S] = 5.0 mM; for IC50: wild-type hCAII 500 nM, pNPA 5 mM, 50 mM Tris pH 7.4, 20–30 min in the dark, absorbance at 400 nm
Text: In order to determine the half-maximal inhibitory concentrations (IC50) and the inhibitory constants (Ki) towards hCAII for our library, we used a colorimetric endpoint measurement of the catalyzed pNPA hydrolysis (Figure 1a). Usually, a dansyl competition assay is employed for this purpose. However, as this assay is fluorescence-based and azobenzenes can quench fluorescence, this might cause a distortion in the obtained data. Furthermore, irradiation with UV light (i.e., λ = 280 nm for tryptophan excitation) can result in azobenzene-cis-isomerization, which could lead to different binding characteristics. Therefore, we aimed at the endpoint absorbance system described herein.
5. hCAII purification, crystallization and assay
5.1. Purification and crystallization
Wild-type human Carbonic Anhydrase II (hCAII) was expressed and purified as […]
previously reported. […]
5.2. Determination of half-maximal inhibitory concentration (IC50)
Approximately 1.0 mg of hCAII was dissolved in 100 µL of 50 mM Tris (pH 7.4) and diluted to a final concentration of 500 nM (concentration was determined in duplicates by absorbance spectroscopy) and mixed with the appropriate amount of blocker. The enzyme-blocker solution was then pipetted into a 96-well plate (white, clear flat bottom) containing pNPA for a final concentration of 5 mM. This was added simultaneously with a multi-well-pipette. After 20–30 min of incubation in the dark, the absorbance was measured using a plate reader at λ = 400 nm. Obtained data was background substracted and divided by data points of non-inhibited hCAII in order to obtain relative activity. The data points were fitted sigmoidal (eq. 1) or using the Hill equation (eq. 2) using IgorPro […]
All experiments were performed at least in triplicates. […]
y = base + [max / (1 + exp[(xhalf – x)/rate)]] (eq. 1) y = base + (max – base)/(1 + (xhalf / x)rate) (eq. 2)
5.3. Determination of inhibitory constants (Ki)
Inhibitory constants were determined using the Cheng–Prussow equation (eq. 3) with the obtained half-maximal inibitory constants (IC50) and with substrate concentration [S]
The Michaelis–Menten constant Km was obtained for this assay system independently and […]

Compound | Ki [nM] | IC50 [nM]
NS(=O)(=O)c1ccc(/N=N/c2ccc(O)cc2)cc1 [1a] | 29.7 | 166
CCN(CC)c1ccc(/N=N/c2ccc(S(N)(=O)=O)cc2)cc1 [1b] | 25 | 140
NS(=O)(=O)c1ccc(/N=N/c2ccc(N3CCOCC3)cc2)cc1 [1c] | 55.4 | 309
[N-]=[N+]=Nc1ccc(/N=N/c2ccc(S(N)(=O)=O)cc2)cc1 [1e] | 46.1 | 257
Cc1ccc(/N=N/c2ccc(S(N)(=O)=O)cc2)cc1 [1f] | 65.1 | 363
NS(=O)(=O)c1ccc(/N=N/c2ccc([N+](=O)[O-])cc2)cc1 [1g] | 28.6 | 159
NS(=O)(=O)c1ccc(/N=N/c2ccccc2)cc1 [1h] | 44.8 | 250
CCOC(=O)c1ccc(/N=N/c2ccc(S(N)(=O)=O)cc2)cc1 [1i, (E)-Ethyl 4-((4-sulfamoylphenyl)diazenyl)benzoate] | 30.1 | 168
